How the values were obtained:
[1] = system: panel of recombinant HIV 1 subtype B RTs; test: RT binding inhibition (BIC) assay, whole RT panel; settings: all conditions studied
Method: (iii) Protocol for RT binding inhibition (BIC) assay: The study was performed in a modified DNA polymerase assay. The inhibitors were serially diluted in five steps, enzyme dilution was added and the enzyme/inhibitor mixtures were incubated for 30 minutes at 33° C. Aliquots of the enzyme/inhibitor mixture were transferred to each well of a microtiter plate containing either immobilised primer, or primer/template. The enzyme was allowed to bind to the immobilised polymer for 90 min at 33° C. The amount of RT used was standardised to an activity corresponding to 40-60 pg (3.3-5.0×10^−16 mol) reference HIV-1 RT per well. The plates were then washed to remove unbound enzyme whereupon the amount of bound enzyme was determined by addition of the appropriate reaction solution for polymerisation (i e a reaction solution devoid of primer for studies of primer binding and a reaction solution devoid of both primer and template for studies of binding to primed template). The polymerase reaction was allowed to proceed for 3 hours at 33° C., whereupon the reaction was terminated by a wash of the plate.
The capacity of the indicated substances to inhibit the binding to primer or to primed DNA template of a panel of recombinant HIV 1 subtype B RTs was studied according to “Protocol for RT binding inhibition (BIC) assay” (protocol (iii) above).

[2] = system: Mut1 (RNase H inactive mutant of HIV-1 RT); test: Gel mobility shifts in native polyacrylamide gel electrophoresis (PAGE); assay type: binding
Excerpt: (§1) In the following experiment, the terms “34-mer” and “35-mer” refer to SEQ ID NO:3 (produced in example A1 above) and SEQ ID NO:4 (produced in example A2 above), respectively. […] Natural RT molecules have an RNase H activity which normally cleaves RNA molecules. […] This mutant is produced according to the method given in Schatz, O., Cromme, F. V., Grüninger-Leitch, F. and Le Grice, S. F. J., Febs Letter. Vol.257, No.2 p.311-314. This RT-mutant is further on referred to as Mut1. The following experiments are carried out:
2. Gel mobility shifts in polyacrylamide gel electrophoresis (PAGE) experiments.
a) Native 20% PAGE gel is run at 4-5° C. Samples are incubated at 4° C. in 50 mM hepes buffer and 5 mM magnesium chloride and varying salt concentrations as indicated below.
Samples are incubated for 90 min at 4° C. prior to a further 10 min incubation at 4° C. with ammonium sulphate and/or KCl. Samples applied to lanes 4 and 5 have twice the amount of 34-mer used for the other samples.
b) Native 20% PAGE gel run at 4-5° C. Samples are incubated at 4° C. in 50 mM hepes buffer and 5 mM magnesium chloride, with varying concentrations of ammonium sulphate.
Native 20% PAGE gel is run at 4-5° C. Samples are incubated at 4° C. in 50 mM hepes buffer, 15 mM manganese sulphate, 1 mM EDTA and 0.25 mM EGTA.
Samples are incubated 10 min at room temperature prior to a 60 min incubation at 4° C. One μl of sample solution is applied per lane. Electrophoresis is conducted with up to 400 volts while cooling to approximately 4° C. After 0.209 kWh the gel is silver stained.

[3] = system: Mut1 (RNase H inactive mutant of HIV-1 RT); test: Test of binding by gel filtration on a SMART system; settings: starting amounts Mut1 210 pmol, oligonucleotide 630 pmol; Mut1 only 0.50 / 0.63
Excerpt: as §1
1. Test of binding by means of separation of the complex Mut1−34-mer (from Example A1) from excess 34-mer using gel filtration on a SMART system.
1. Mut1 is incubated with excess 34-mer for about 90 min at 4° C., buffer Tris-HCl, pH=8.0, containing 5 mM MgCl2. The mixture is then applied to a gel filtration column of a SMART™-type system, which allows simultaneous registration at two different wavelengths.
Starting amounts: Mut=210 pmol; 34-mer=630 pmol. The left peak is the complex Mut1−34-mer. The absorption at 260 nm (the upper curve) is now higher than the absorption at 280 nm (the lower curve): A260/A280=1.13. The right peak is the excess 34-mer, which has the characteristic absorption ratio for nucleic acids: A260/A280=2.01. […]

| Compound | Capacity to prevent RT binding to primer or primed template [1] | Gel mobility of Mut1 in complex with oligonucleotide ([2]; native 20% PAGE at 4-5° C.) | Complex with Mut1 at high salt concentrations ([2]; native 20% PAGE, ammonium sulphate up to […]) | A260/A280 of the complex peak Mut1-oligonucleotide [3] |
| --- | --- | --- | --- | --- |
| Cc1ccnc2c1NC(=O)c1cccnc1N2C1CC1 [Nevirapine] | unable to prevent RT binding |  |  |  |
| 34-mer: phosphorothioate RNA 34-mer corresponding to bases 10-43 in tRNALys3 with unmodified A, G, C and U nucleotides (example A1) |  | migrates faster than Mut1 alone | remains in complex with Mut1 | 1.13 |

Reference: patent US20040053872A1, “New sequences” (priority 2000, published 2004)
